Measured values from PubChem BioAssay AID1918942 (Molecular Pharmacology Branch, DTP, NCI, 2023).

Tested on: 743489-274-T-PDC complex spheroid viability
Assay: Anticancer human tumor 743489-274-T-PDC patient-derived renal cell carcinoma cell line growth inhibition
Conditions: for IC50: curve of first compound; for viability, T/C: stronger effect = lower value
Procedure, shortened: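 Drug combinations with the LSD1 inhibitor iadademstat tested on tumor cells co-cultured as spheroids with endothelial cells and mesenchymal stem cells. Concentrations descended in half-log increments from clinical Cmax or 10 microM.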

[1] = second compound 0.1 µM, first compound 0.00949 µM
[2] = second compound 0.1 µM, first compound 0.03 µM
[3] = second compound 0.1 µM, first compound 0.0949 µM
[4] = second compound 0.1 µM, first compound 0.3 µM
[5] = second compound 0.1 µM, first compound 0.949 µM
[6] = second compound 0.1 µM, first compound 3 µM
[7] = second compound 0.316 µM, first compound 0.00949 µM
[8] = second compound 0.316 µM, first compound 0.03 µM
[9] = second compound 0.316 µM, first compound 0.0949 µM
[10] = second compound 0.316 µM, first compound 0.3 µM
[11] = second compound 0.316 µM, first compound 0.949 µM
[12] = second compound 0.316 µM, first compound 3 µM
[13] = second compound 1 µM, first compound 0.00949 µM
[14] = second compound 1 µM, first compound 0.03 µM
[15] = second compound 1 µM, first compound 0.0949 µM
[16] = second compound 1 µM, first compound 0.3 µM
[17] = second compound 1 µM, first compound 0.949 µM
[18] = second compound 1 µM, first compound 3 µM
[19] = second compound 3.16 µM, first compound 0.00949 µM
[20] = second compound 3.16 µM, first compound 0.03 µM
[21] = second compound 3.16 µM, first compound 0.0949 µM
[22] = second compound 3.16 µM, first compound 0.3 µM
[23] = second compound 3.16 µM, first compound 0.949 µM
[24] = second compound 3.16 µM, first compound 3 µM
[25] = second compound 10 µM, first compound 0.00949 µM
[26] = second compound 10 µM, first compound 0.03 µM
[27] = second compound 10 µM, first compound 0.0949 µM
[28] = second compound 10 µM, first compound 0.3 µM
[29] = second compound 10 µM, first compound 0.949 µM
[30] = second compound 10 µM, first compound 3 µM
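Note: spheroids exposed to compounds for 7 days before readout.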
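Throughout, for viability, T/C: 100% = DMSO vehicle control wells.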

Structure (SMILES): Nc1ccccc1NC(=O)c1ccc(CNC(=O)OCc2cccnc2)cc1 + NC1CCC(NC2CC2c2ccccc2)CC1
- IC50 (second compound 0.1 µM): 0.932 µM
- IC50 (second compound 0.316 µM): > 3 µM
- IC50 (second compound 1 µM): 1.43 µM
- IC50 (second compound 3.16 µM): 1.78 µM
- IC50 (second compound 10 µM): 1.27 µM
- viability, T/C [1]: 96.2%
- viability, T/C [2]: 89.4%
- viability, T/C [3]: 83.7%
- viability, T/C [4]: 85.4%
- viability, T/C [5]: 49.3%
- viability, T/C [6]: 31.2%
- viability, T/C [7]: 116%
- viability, T/C [8]: 92.2%
- viability, T/C [9]: 88.2%
- viability, T/C [10]: 82.8%
- viability, T/C [11]: 61.6%
- viability, T/C [12]: 52.8%
- viability, T/C [13]: 107%
- viability, T/C [14]: 94.8%
- viability, T/C [15]: 88.9%
- viability, T/C [16]: 82.9%
- viability, T/C [17]: 54.4%
- viability, T/C [18]: 36.2%
- viability, T/C [19]: 113%
- viability, T/C [20]: 97.4%
- viability, T/C [21]: 97%
- viability, T/C [22]: 80.5%
- viability, T/C [23]: 59.4%
- viability, T/C [24]: 41%
- viability, T/C [25]: 107%
- viability, T/C [26]: 109%
- viability, T/C [27]: 87.9%
- viability, T/C [28]: 79.8%
- viability, T/C [29]: 57.1%
- viability, T/C [30]: 29.3%

Structure (SMILES): O=C(C=Cc1cccc(S(=O)(=O)Nc2ccccc2)c1)NO + NC1CCC(NC2CC2c2ccccc2)CC1
- IC50 (second compound 0.1 µM): > 3 µM
- IC50 (second compound 0.316 µM): 2.84 µM
- IC50 (second compound 1 µM): 2.23 µM
- IC50 (second compound 3.16 µM): > 3 µM
- IC50 (second compound 10 µM): 1.91 µM
- viability, T/C [1]: 103%
- viability, T/C [2]: 94.4%
- viability, T/C [3]: 84.1%
- viability, T/C [4]: 67.9%
- viability, T/C [5]: 81.7%
- viability, T/C [6]: 62.1%
- viability, T/C [7]: 102%
- viability, T/C [8]: 96.5%
- viability, T/C [9]: 87.8%
- viability, T/C [10]: 80.9%
- viability, T/C [11]: 69.3%
- viability, T/C [12]: 47.4%
- viability, T/C [13]: 100%
- viability, T/C [14]: 107%
- viability, T/C [15]: 98.5%
- viability, T/C [16]: 78.7%
- viability, T/C [17]: 78.5%
- viability, T/C [18]: 41.2%
- viability, T/C [19]: 108%
- viability, T/C [20]: 105%
- viability, T/C [21]: 95.5%
- viability, T/C [22]: 78.2%
- viability, T/C [23]: 69.2%
- viability, T/C [24]: 51.9%
- viability, T/C [25]: 109%
- viability, T/C [26]: 96.2%
- viability, T/C [27]: 106%
- viability, T/C [28]: 74.9%
- viability, T/C [29]: 65.6%
- viability, T/C [30]: 41.4%
